Results as given in US20070049564A1 (Wyeth, priority 2005, published 2007).
Values after ≈ are worked out from the molar mass of the structure shown. Where two headings read alike, the source gives them in different places.

Legend:
[1] = tested on: S. aureus GC 2216; assay: MIC, broth microdilution; conditions: Staphylococcus aureus
Procedure: (§1) Antimicrobial susceptibility testing. The in vitro activities of the antibiotics are determined by the broth microdilution method as recommended by the National Committee for Clinical Laboratory Standards (NCCLS) (1). Mueller-Hinton II broth (MHBII)(BBL Cockeysville, Md.) is the medium employed in the testing procedures. Microtiter plates containing serial dilutions of each antimicrobial agent are inoculated with each organism to yield the appropriate density (10^5 CFU/ml) in a 100 μl final volume. The plates are incubated for 18-22 hours at 35° C. in ambient air. […] Standard Pharmacological Test Procedures
(§2) Presented in Tables I-XIII are representative compounds of Formula I which were evaluated against a panel of 40 selected gram-positive and gram-negative bacteria strains by pre-incubation in water, mouse serum or human serum. Representative compounds were first incubated in mouse serum for an hour prior to the in vitro testing against a panel of selected gram-positive and gram-negative bacteria strains. All compounds were also pre-incubated in water for an hour prior to testing as control. Representative compounds of Formula I were incubated in human serum prior to MIC determination.

[2] = tested on: S. aureus GC 1079; assay: MIC, broth microdilution; conditions: Staphylococcus aureus
[3] = tested on: S. epidermidis GC 4935; assay: MIC, broth microdilution; conditions: Staphylococcus epidermidis
Procedure: (§3) Antimicrobial susceptibility testing. The in vitro activities of the antibiotics are determined by the broth microdilution method as recommended by the National Committee for Clinical Laboratory Standards (NCCLS) (1). Mueller-Hinton II broth (MHBII)(BBL Cockeysville, Md.) is the medium employed in the testing procedures. Microtiter plates containing serial dilutions of each antimicrobial agent are inoculated with each organism to yield the appropriate density (10^5 CFU/ml) in a 100 μl final volume. The plates are incubated for 18-22 hours at 35° C. in ambient air.
Representative compounds were first incubated in mouse serum for an hour prior to the in vitro testing against a panel of selected gram-positive and gram-negative bacteria strains. All compounds were also pre-incubated in water for an hour prior to testing as control. Representative compounds of Formula I were incubated in human serum prior to MIC determination.

[4] = tested on: E. coli GC 2234; assay: MIC, broth microdilution; conditions: Escherichia coli
Procedure: as §3
(§4) Representative compounds were first incubated in mouse serum for an hour prior to the in vitro testing against a panel of selected gram-positive and gram-negative bacteria strains. All compounds were also pre-incubated in water for an hour prior to testing as control.

[5] = tested on: S. pyogenes GC 4563; assay: MIC, broth microdilution; conditions: Streptococcus pyogenes
Procedure: as §1, §2

[6] = tested on: E. coli GC 2232; assay: MIC, broth microdilution; conditions: Escherichia coli
[7] = tested on: S. aureus GC 1131; assay: MIC, broth microdilution; conditions: Staphylococcus aureus
[8] = tested on: S. aureus GC 6466; assay: MIC, broth microdilution; conditions: Staphylococcus aureus
[9] = tested on: S. pneumoniae* GC 4465; assay: MIC, broth microdilution; conditions: Streptococcus pneumoniae
[10] = tested on: S. aureus GC 6335; assay: MIC, broth microdilution; conditions: Staphylococcus aureus
[11] = tested on: E. coli GC 3226; assay: MIC, broth microdilution; conditions: Escherichia coli
[12] = tested on: c. albicans GC 3066; assay: MIC, broth microdilution
[13] = tested on: S. typhimurium GC 2172; assay: MIC, broth microdilution; conditions: Salmonella enterica, TYPHIMURIUM
[14] = tested on: E. coli GC 2272; assay: MIC, broth microdilution; conditions: Escherichia coli
[15] = tested on: E. faecalis GC 2267; assay: MIC, broth microdilution; conditions: Enterococcus faecalis
Procedure: as §3, §4

[16] = tested on: S. pneumoniae+ GC 4465; assay: MIC, broth microdilution; conditions: Streptococcus pneumoniae
[17] = tested on: E. coli GC 2231; assay: MIC, broth microdilution; conditions: Escherichia coli
[18] = tested on: E. faecium GC 4556; assay: MIC, broth microdilution; conditions: Enterococcus faecium
[19] = tested on: E. faecium GC 2243; assay: MIC, broth microdilution; conditions: Enterococcus faecium
[20] = tested on: Staph. aureus Smith; assay: In vivo activity (oral, iv; ED50) against Staph. aureus Smith in mice
Procedure: Representative examples of compounds of Formula I were tested for the oral efficacy using S. aureus Smith in mice.

[21] = read-out: MINIMAL INHIBITORY CONCENTRATION MIC, pre-incubated in Human Serum
[22] = read-out: MINIMAL INHIBITORY CONCENTRATION MIC, pre-incubated in Mouse Serum
[23] = read-out: MINIMAL INHIBITORY CONCENTRATION MIC, pre-incubated in Water

CN(C)c1cc(NC(=O)CN(C(=O)OCOC(=O)c2ccc(C(C)(C)C)cc2)C(C)(C)C)c(O)c2c1C[C@H]1C[C@H]3[C@H](N(C)C)C(O)=C(C(N)=O)C(=O)[C@@]3(O)C(O)=C1C2=O [Example 43, ({[(2-{[(5aR,6aS,7S,10aS)-9-(aminocarbonyl)-4,7-bis(dimethylamino)-1,8,10a,11-tetrahydroxy-10,12-dioxo-5,5a,6,6a,7,10,10a,12-octahydrotetracen-2-yl]amino}-2-oxoethyl)(tert-butyl)amino]carbonyl}oxy)methyl 4-tert-butylbenzoate]
MIC ([1]; GC2216, read-out: MINIMAL INHIBITORY CONCENTRATION MIC, pre-incubated in Human Serum): 32 µg/mL (≈ 39 µM) | MIC ([1]; GC2216, read-out: MINIMAL INHIBITORY CONCENTRATION MIC, pre-incubated in Mouse Serum): 0.5 µg/mL (≈ 0.61 µM) | MIC ([1]; GC2216, read-out: MINIMAL INHIBITORY CONCENTRATION MIC, pre-incubated in Water): 64 µg/mL (≈ 78.1 µM) | MIC ([2]; GC1079, read-out: MINIMAL INHIBITORY CONCENTRATION MIC, pre-incubated in Human Serum): 32 µg/mL (≈ 39 µM) | MIC ([2]; GC1079, read-out: MINIMAL INHIBITORY CONCENTRATION MIC, pre-incubated in Mouse Serum): 1 µg/mL (≈ 1.22 µM) | MIC ([2]; GC1079, read-out: MINIMAL INHIBITORY CONCENTRATION MIC, pre-incubated in Water): 64 µg/mL (≈ 78.1 µM) | MIC ([3]; GC4935, read-out: MINIMAL INHIBITORY CONCENTRATION MIC, pre-incubated in Human Serum): 4 µg/mL (≈ 4.88 µM) | MIC ([3]; GC4935, read-out: MINIMAL INHIBITORY CONCENTRATION MIC, pre-incubated in Mouse Serum): 2 µg/mL (≈ 2.44 µM) | MIC ([3]; GC4935, read-out: MINIMAL INHIBITORY CONCENTRATION MIC, pre-incubated in Water): 32 µg/mL (≈ 39 µM) | MIC ([4]; GC2234, read-out: MINIMAL INHIBITORY CONCENTRATION MIC, pre-incubated in Human Serum): > 64 µg/mL | MIC ([4]; GC2234, read-out: MINIMAL INHIBITORY CONCENTRATION MIC, pre-incubated in Mouse Serum): 0.25 µg/mL (≈ 0.305 µM) | MIC ([4]; GC2234, read-out: MINIMAL INHIBITORY CONCENTRATION MIC, pre-incubated in Water): > 64 µg/mL | MIC ([5]; GC4563, read-out: MINIMAL INHIBITORY CONCENTRATION MIC, pre-incubated in Human Serum): < 0.06 µg/mL | MIC ([5]; GC4563, read-out: MINIMAL INHIBITORY CONCENTRATION MIC, pre-incubated in Mouse Serum): < 0.06 µg/mL | MIC ([5]; GC4563, read-out: MINIMAL INHIBITORY CONCENTRATION MIC, pre-incubated in Water): < 0.06 µg/mL | MIC ([6]; GC2232, read-out: MINIMAL INHIBITORY CONCENTRATION MIC, pre-incubated in Human Serum): > 64 µg/mL | MIC ([6]; GC2232, read-out: MINIMAL INHIBITORY CONCENTRATION MIC, pre-incubated in Mouse Serum): 0.5 µg/mL (≈ 0.61 µM) | MIC ([6]; GC2232, read-out: MINIMAL INHIBITORY CONCENTRATION MIC, pre-incubated in Water): > 64 µg/mL | MIC ([7]; GC1131, read-out: MINIMAL INHIBITORY CONCENTRATION MIC, pre-incubated in Human Serum): 16 µg/mL (≈ 19.5 µM) | MIC ([7]; GC1131, read-out: MINIMAL INHIBITORY CONCENTRATION MIC, pre-incubated in Mouse Serum): 1 µg/mL (≈ 1.22 µM) | MIC ([7]; GC1131, read-out: MINIMAL INHIBITORY CONCENTRATION MIC, pre-incubated in Water): 64 µg/mL (≈ 78.1 µM) | MIC ([8]; GC6466, read-out: MINIMAL INHIBITORY CONCENTRATION MIC, pre-incubated in Human Serum): 16 µg/mL (≈ 19.5 µM) | MIC ([8]; GC6466, read-out: MINIMAL INHIBITORY CONCENTRATION MIC, pre-incubated in Mouse Serum): 0.5 µg/mL (≈ 0.61 µM) | MIC ([8]; GC6466, read-out: MINIMAL INHIBITORY CONCENTRATION MIC, pre-incubated in Water): 64 µg/mL (≈ 78.1 µM) | MIC [9, 21]: 1 µg/mL (≈ 1.22 µM) | MIC [9, 22]: < 0.06 µg/mL | MIC [9, 23]: 0.5 µg/mL (≈ 0.61 µM) | MIC ([10]; GC6335, read-out: MINIMAL INHIBITORY CONCENTRATION MIC, pre-incubated in Human Serum): 64 µg/mL (≈ 78.1 µM) | MIC ([10]; GC6335, read-out: MINIMAL INHIBITORY CONCENTRATION MIC, pre-incubated in Mouse Serum): 1 µg/mL (≈ 1.22 µM) | MIC ([10]; GC6335, read-out: MINIMAL INHIBITORY CONCENTRATION MIC, pre-incubated in Water): 64 µg/mL (≈ 78.1 µM) | MIC ([11]; GC3226, read-out: MINIMAL INHIBITORY CONCENTRATION MIC, pre-incubated in Human Serum): > 64 µg/mL | MIC ([11]; GC3226, read-out: MINIMAL INHIBITORY CONCENTRATION MIC, pre-incubated in Mouse Serum): 1 µg/mL (≈ 1.22 µM) | MIC ([11]; GC3226, read-out: MINIMAL INHIBITORY CONCENTRATION MIC, pre-incubated in Water): > 64 µg/mL | MIC ([12]; Candida albicans, GC3066, read-out: MINIMAL INHIBITORY CONCENTRATION MIC): > 64 µg/mL | MINIMAL INHIBITORY CONCENTRATION MIC ([12]; pre-incubated in Human Serum): >64 UG/ML | MINIMAL INHIBITORY CONCENTRATION MIC ([12]; pre-incubated in Mouse Serum): >64 UG/ML | MIC [13, 21]: > 64 µg/mL | MIC [13, 22]: 2 µg/mL (≈ 2.44 µM) | MIC [13, 23]: > 64 µg/mL | MIC ([14]; GC2272, read-out: MINIMAL INHIBITORY CONCENTRATION MIC, pre-incubated in Human Serum): > 64 µg/mL | MIC ([14]; GC2272, read-out: MINIMAL INHIBITORY CONCENTRATION MIC, pre-incubated in Mouse Serum): 0.5 µg/mL (≈ 0.61 µM) | MIC ([14]; GC2272, read-out: MINIMAL INHIBITORY CONCENTRATION MIC, pre-incubated in Water): > 64 µg/mL | MIC ([15]; GC2267, read-out: MINIMAL INHIBITORY CONCENTRATION MIC, pre-incubated in Human Serum): 4 µg/mL (≈ 4.88 µM) | MIC ([15]; GC2267, read-out: MINIMAL INHIBITORY CONCENTRATION MIC, pre-incubated in Mouse Serum): 0.5 µg/mL (≈ 0.61 µM) | MIC ([15]; GC2267, read-out: MINIMAL INHIBITORY CONCENTRATION MIC, pre-incubated in Water): 32 µg/mL (≈ 39 µM) | MIC [16, 21]: 2 µg/mL (≈ 2.44 µM) | MIC [16, 22]: 2 µg/mL (≈ 2.44 µM) | MIC [16, 23]: 2 µg/mL (≈ 2.44 µM) | MIC ([17]; GC2231, read-out: MINIMAL INHIBITORY CONCENTRATION MIC, pre-incubated in Human Serum): > 64 µg/mL | MIC ([17]; GC2231, read-out: MINIMAL INHIBITORY CONCENTRATION MIC, pre-incubated in Mouse Serum): 0.5 µg/mL (≈ 0.61 µM) | MIC ([17]; GC2231, read-out: MINIMAL INHIBITORY CONCENTRATION MIC, pre-incubated in Water): > 64 µg/mL | MIC ([18]; GC4556, read-out: MINIMAL INHIBITORY CONCENTRATION MIC, pre-incubated in Human Serum): 8 µg/mL (≈ 9.76 µM) | MIC ([18]; GC4556, read-out: MINIMAL INHIBITORY CONCENTRATION MIC, pre-incubated in Mouse Serum): 0.5 µg/mL (≈ 0.61 µM) | MIC ([18]; GC4556, read-out: MINIMAL INHIBITORY CONCENTRATION MIC, pre-incubated in Water): 16 µg/mL (≈ 19.5 µM) | MIC ([19]; GC2243, read-out: MINIMAL INHIBITORY CONCENTRATION MIC, pre-incubated in Human Serum): 0.25 µg/mL (≈ 0.305 µM) | MIC ([19]; GC2243, read-out: MINIMAL INHIBITORY CONCENTRATION MIC, pre-incubated in Mouse Serum): 0.12 µg/mL (≈ 0.146 µM) | MIC ([19]; GC2243, read-out: MINIMAL INHIBITORY CONCENTRATION MIC, pre-incubated in Water): 0.25 µg/mL (≈ 0.305 µM) | ED50 ([20]; Staphylococcus aureus, in Mus musculus, po, read-out: ED50 Staph Smith SOD): 12.8 mg/kg | ED50 ([20]; iv, read-out: ED50 Staph Smith SIV): 0.83 mg/kg
